Measured values reported in ChEMBL document CHEMBL3407493, “Medicinal uses, phytochemistry and pharmacology of family Sterculiaceae: a review” (Eur J Med Chem, 2015).
In brackets after ≈: the same amount, converted by molar mass.

Key:
[1] = Antioxidant activity assessed as inhibition of linoleic acid autooxidation; type: physicochemical
[2] = tested on: Liver microsome; assay: Antioxidant activity in rat liver microsomes assessed as inhibition of NADPH-dependent lipid peroxidation; type: functional
[3] = Antioxidant activity assessed as DPPH radical scavenging activity; type: physicochemical
[4] = tested on: Escherichia coli; assay: Antibacterial activity against Escherichia coli ATCC 11103; type: functional
[5] = tested on: Klebsiella pneumoniae; assay: Antibacterial activity against Klebsiella pneumoniae ATCC 10031; type: functional
[6] = Antibacterial activity against Salmonella setubal ATCC 19196; type: functional, Salmonella enterica subsp. enterica serovar Setubal; conditions: Salmonella enterica
[7] = Toxicity in Artemia salina Linn.; type: organism-based; conditions: in vivo
[8] = Cytotoxicity against human Bel7402 cells assessed as growth inhibition; type: functional, cell-based; conditions: Bel-7402
[9] = tested on: SK-MEL-28; assay: Cytotoxicity against human SK-MEL-28 cells assessed as growth inhibition; type: functional, cell-based

IC50 [1] [µg/mL]	IC50 [2] [µg/mL]	IC50 [3] [µg/mL]	Structure (SMILES)	other results
2 (≈ 1.95 µM)	36 (≈ 35.1 µM)	2.4 (≈ 2.34 µM)	OC[C@H]1O[C@@H](O[C@@H]2[C@@H]3c4c(O)cc(O)cc4O[C@]2(c2ccc(O)c(O)c2)Oc2cc(O)c4c(c23)O[C@H](c2ccc(O)c(O)c2)[C@H](O)[C@H]4c2c(O)cc(O)c3c2O[C@H](c2ccc(O)c(O)c2)[C@H](O)C3)[C@H](O)[C@@H](O)[C@H]1O	
	12 (≈ 20.7 µM)	1.4 (≈ 2.42 µM)	Oc1cc(O)c2c(c1)O[C@H](c1ccc(O)c(O)c1)[C@H](O)[C@H]2c1c(O)cc(O)c2c1O[C@H](c1ccc(O)c(O)c1)[C@H](O)C2 [PROCYANIDIN B2]	
			CC(C)CC(C(=O)NC1C(=O)NC(Cc2ccccc2)C(=O)N/C=C\c2ccc(cc2)OC1C(C)C)N(C)C (configuration not stated)	MIC [4]: 25 µg/mL (≈ 46.8 µM); MIC [5]: 25 µg/mL (≈ 46.8 µM); MIC [6]: 50 µg/mL (≈ 93.5 µM)
2.7 (≈ 2.34 µM)	25 (≈ 21.6 µM)	2.1 (≈ 1.82 µM)	Oc1cc(O)c2c(c1)O[C@H](c1ccc(O)c(O)c1)[C@H](O)[C@H]2c1c(O)cc(O)c2c1O[C@H](c1ccc(O)c(O)c1)[C@H](O)[C@H]2c1c(O)cc(O)c2c1O[C@H](c1ccc(O)c(O)c1)[C@H](O)[C@H]2c1c(O)cc(O)c2c1O[C@H](c1ccc(O)c(O)c1)[C@H](O)C2	
			CC1=C2OC[C@@H](C)c3c(O)cc(C)c(c32)C(=O)C1=O	LC50 [7]: 50.7 µg/mL (≈ 196 µM)
			CC1=Cc2c(C(C)C)ccc(C)c2C(=O)C1=O	LC50 [7]: 2.08 µg/mL (≈ 9.11 µM)
			CC1=Cc2c(c(C)cc(O)c2C(C)C)C(=O)C1=O [MANSONONE G]	LC50 [7]: 64.4 µg/mL (≈ 263 µM)
			CC1(C)C(=O)[C@@H](O)C[C@@H]2C1=CC[C@@H]1[C@@]2(C)C(=O)C[C@]2(C)[C@@H]([C@@](C)(O)C(=O)CC(O)C(C)(C)O)[C@H](O)C[C@@]12C (some centres not stated) [CUCURBITACIN G]	IC50 [8]: 1370 nM; IC50 [9]: 1280 nM
			COc1cc(C)c2oc(=O)c(C)cc2c1C(C)C	LC50 [7]: 24.2 µg/mL (≈ 98.2 µM)
			O=C(N[C@H](CO)[C@H](O)c1ccc([N+](=O)[O-])cc1)C(Cl)Cl [CHLORAMPHENICOL]	MIC [4]: 3.12 µg/mL (≈ 9.66 µM); MIC [5]: 1.56 µg/mL (≈ 4.83 µM); MIC [6]: 3.12 µg/mL (≈ 9.66 µM)
			CC(C)(O)/C=C/C(=O)[C@](C)(O)[C@H]1[C@H](O)C[C@@]2(C)[C@@H]3CC=C4[C@@H](C[C@H](O)C(=O)C4(C)C)[C@]3(C)C(=O)C[C@]12C [CUCURBITACIN D]	IC50 [8]: 1410 nM; IC50 [9]: 1220 nM
2.5 (≈ 3.38 µM)	18 (≈ 24.4 µM)	3.9 (≈ 5.28 µM)	OC[C@H]1O[C@@H](O[C@H]2[C@H]3c4c(O)cc(O)cc4O[C@]2(c2ccc(O)c(O)c2)Oc2cc(O)c4c(c23)O[C@H](c2ccc(O)c(O)c2)[C@H](O)C4)[C@H](O)[C@@H](O)[C@H]1O	
0.62 (≈ 2.14 µM)	29 (≈ 99.9 µM)	0.62 (≈ 2.14 µM)	Oc1cc(O)c2c(c1)O[C@H](c1ccc(O)c(O)c1)[C@H](O)C2 [(-)-EPICATECHIN]	
			Cc1cc2c(C(C)C)c(O)cc(C)c2oc1=O	LC50 [7]: 0.61 µg/mL (≈ 2.63 µM)
			C=C(C)[C@@H]1CC[C@]2(C(=O)O)CC[C@]3(C)[C@H](CC[C@@H]4[C@@]5(C)CC[C@H](OC(=O)/C=C/c6ccc(O)c(O)c6)C(C)(C)[C@@H]5CC[C@]43C)[C@@H]12	IC50 [9]: 81700 nM
			Cc1c2c3c(ccc(C)c3oc1=O)C(C)CO2 (configuration not stated)	LC50 [7]: 188 µg/mL (≈ 816 µM)
5.3 (≈ 6.11 µM)	68 (≈ 78.5 µM)	6.2 (≈ 7.15 µM)	Oc1cc(O)c2c(c1)O[C@H](c1ccc(O)c(O)c1)[C@H](O)[C@H]2c1c(O)cc(O)c2c1O[C@H](c1ccc(O)c(O)c1)[C@H](O)[C@H]2c1c(O)cc(O)c2c1O[C@H](c1ccc(O)c(O)c1)[C@H](O)C2 [PROCYANIDIN C1]	
			C=C(C)[C@@H]1CC[C@]2(C(=O)O)CC[C@]3(COC(=O)c4ccccc4)[C@H](CC[C@@H]4[C@@]5(C)CC[C@H](OC(C)=O)C(C)(C)[C@@H]5CC[C@]43C)[C@@H]12	IC50 [9]: 32000 nM
1.9 (≈ 1.91 µM)	28 (≈ 28.1 µM)	2.3 (≈ 2.31 µM)	Oc1cc(O)c2c(c1)O[C@]1(c3ccc(O)c(O)c3)Oc3cc(O)c4c(c3[C@@H]2[C@H]1O[C@@H]1OC[C@@H](O)[C@H](O)[C@H]1O)O[C@H](c1ccc(O)c(O)c1)[C@H](O)[C@H]4c1c(O)cc(O)c2c1O[C@H](c1ccc(O)c(O)c1)[C@H](O)C2	
7.7 (≈ 17.9 µM)	5.6 (≈ 13 µM)	4.6 (≈ 10.7 µM)	Cc1c(C)c2c(c(C)c1O)CCC(C)(CCCC(C)CCCC(C)CCCC(C)C)O2 (racemic) [alpha-TOCHOPHEROL]	
2.3 (≈ 3.98 µM)	12 (≈ 20.7 µM)	2.3 (≈ 3.98 µM)	Oc1cc(O)c2c(c1)O[C@H](c1ccc(O)c(O)c1)[C@H](O)[C@H]2c1c(O)cc2c(c1O)C[C@@H](O)[C@@H](c1ccc(O)c(O)c1)O2	
2.2 (≈ 3.1 µM)	21 (≈ 29.6 µM)	3.9 (≈ 5.5 µM)	Oc1cc(O)c2c(c1)O[C@]1(c3ccc(O)c(O)c3)Oc3cc(O)c4c(c3[C@H]2[C@@H]1O[C@@H]1OC[C@@H](O)[C@H](O)[C@H]1O)O[C@H](c1ccc(O)c(O)c1)[C@H](O)C4	
